Experiments:
[1] = test system: HCT-116; test: Antiproliferative activity against human HCT-116 cells assessed as reduction in cell viability by MTT assay; type: functional, cell-based
[2] = test system: HeLa; test: Antiproliferative activity against human HeLa cells assessed as reduction in cell viability by MTT assay; type: functional, cell-based
[3] = test system: MCF7; test: Antiproliferative activity against human MCF7 cells assessed as reduction in cell viability by MTT assay; type: functional, cell-based
[4] = test system: HT-29; test: Antiproliferative activity against human HT-29 cells assessed as reduction in cell viability by MTT assay; type: functional, cell-based
[5] = test system: HCT-116; test: Induction of apoptosis in human HCT-116 cells assessed as early apoptotic cells at 2.5 uM incubated for 24 hrs by Annexin V-FITC and propidium iodide staining based flow cytometry analysis (reference value: 6.19 %); type: functional
[6] = test system: HCT-116; test: Induction of apoptosis in human HCT-116 cells assessed as late apoptotic cells at 5 uM incubated for 24 hrs by Annexin V-FITC and propidium iodide staining based flow cytometry analysis (reference value: 0.899 %); type: functional
[7] = test system: MCF7; test: Potency index, ratio of 5-FU IC50 to test compound IC50 for antiproliferative activity against human MCF7 cells by MTT assay; type: functional
[8] = test system: HeLa; test: Potency index, ratio of 5-FU IC50 to test compound IC50 for antiproliferative activity against human HeLa cells by MTT assay; type: functional
[9] = test system: HCT-116; test: Cell cycle arrest in human HCT-116 cells assessed as accumulation at S phase at 2.5 uM measured after 24 hrs by propidium iodide staining based flow cytometry analysis (reference value: 39%); type: functional
[10] = test system: HCT-116; test: Cell cycle arrest in human HCT-116 cells assessed as accumulation at S phase at 5 uM measured after 24 hrs by propidium iodide staining based flow cytometry analysis (reference value: 39%); type: functional
[11] = test system: HCT-116; test: Induction of apoptosis in human HCT-116 cells assessed as early apoptotic cells at 5 uM incubated for 24 hrs by Annexin V-FITC and propidium iodide staining based flow cytometry analysis (reference value: 6.19 %); type: functional
[12] = test system: HCT-116; test: Induction of apoptosis in human HCT-116 cells assessed as necrotic cells at 10 uM incubated for 24 hrs by Annexin V-FITC and propidium iodide staining based flow cytometry analysis (reference value: 0.019 %); type: functional
[13] = test system: HCT-116; test: Cell cycle arrest in human HCT-116 cells assessed as accumulation at G0/G1 phase at 5 uM measured after 24 hrs by propidium iodide staining based flow cytometry analysis (reference value: 30.60 %); type: functional
[14] = test system: HCT-116; test: Cell cycle arrest in human HCT-116 cells assessed as accumulation at G2M phase at 2.5 uM measured after 24 hrs by propidium iodide staining based flow cytometry analysis (reference value: 30.39 %); type: functional
[15] = test system: HT-29; test: Potency index, ratio of 5-FU IC50 to test compound IC50 for antiproliferative activity against human HT-29 cells by MTT assay; type: functional
[16] = test system: HCT-116; test: Induction of apoptosis in human HCT-116 cells assessed as viable cells at 5 uM incubated for 24 hrs by Annexin V-FITC and propidium iodide staining based flow cytometry analysis (reference value: 92.9 %); type: functional; conditions: read-out: Activity
[17] = test system: HCT-116; test: Cell cycle arrest in human HCT-116 cells assessed as accumulation at G2M phase at 10 uM measured after 24 hrs by propidium iodide staining based flow cytometry analysis (reference value: 30.39 %); type: functional
[18] = test system: HCT-116; test: Induction of apoptosis in human HCT-116 cells assessed as viable cells at 2.5 uM incubated for 24 hrs by Annexin V-FITC and propidium iodide staining based flow cytometry analysis (reference value: 92.9 %); type: functional; conditions: read-out: Activity
[19] = test system: HCT-116; test: Cell cycle arrest in human HCT-116 cells assessed as accumulation at G0/G1 phase at 2.5 uM measured after 24 hrs by propidium iodide staining based flow cytometry analysis (reference value: 30.60 %); type: functional
[20] = test system: HCT-116; test: Cell cycle arrest in human HCT-116 cells assessed as accumulation at G0/G1 phase at 10 uM measured after 24 hrs by propidium iodide staining based flow cytometry analysis (reference value: 30.60 %); type: functional
[21] = test system: HCT-116; test: Induction of apoptosis in human HCT-116 cells assessed as early apoptotic cells at 10 uM incubated for 24 hrs by Annexin V-FITC and propidium iodide staining based flow cytometry analysis (reference value: 6.19 %); type: functional
[22] = test system: HCT-116; test: Potency index, ratio of 5-FU IC50 to test compound IC50 for antiproliferative activity against human HCT-116 cells by MTT assay; type: functional
[23] = test system: HCT-116; test: Induction of apoptosis in human HCT-116 cells assessed as viable cells at 10 uM incubated for 24 hrs by Annexin V-FITC and propidium iodide staining based flow cytometry analysis (reference value: 92.9 %); type: functional; conditions: read-out: Activity
[24] = test system: HCT-116; test: Cell cycle arrest in human HCT-116 cells assessed as accumulation at G2M phase at 5 uM measured after 24 hrs by propidium iodide staining based flow cytometry analysis (reference value: 30.39 %); type: functional
[25] = test system: HCT-116; test: Induction of apoptosis in human HCT-116 cells assessed as necrotic cells at 5 uM incubated for 24 hrs by Annexin V-FITC and propidium iodide staining based flow cytometry analysis (reference value: 0.019 %); type: functional
[26] = test system: HCT-116; test: Induction of apoptosis in human HCT-116 cells assessed as necrotic cells at 2.5 uM incubated for 24 hrs by Annexin V-FITC and propidium iodide staining based flow cytometry analysis (reference value: 0.019 %); type: functional
[27] = test system: HCT-116; test: Cell cycle arrest in human HCT-116 cells assessed as accumulation at S phase at 10 uM measured after 24 hrs by propidium iodide staining based flow cytometry analysis (reference value: 39%); type: functional
[28] = test system: HCT-116; test: Induction of apoptosis in human HCT-116 cells assessed as late apoptotic cells at 10 uM incubated for 24 hrs by annexin V-FITC and propidium iodide staining based flow cytometry analysis (reference value: 0.899 %); type: functional
[29] = test system: HCT-116; test: Induction of apoptosis in human HCT-116 cells assessed as late apoptotic cells at 2.5 uM incubated for 24 hrs by Annexin V-FITC and propidium iodide staining based flow cytometry analysis (reference value: 0.899 %); type: functional

SMILES: CCOC(=O)/C=N/c1cnc(Nc2ccc(N3CCN(C)CC3)cc2)nc1NC(C)C
- IC50 [1]: 13.6 µM
- IC50 [2]: 11.5 µM
- IC50 [3]: 12.3 µM
- IC50 [4]: 7.59 µM

SMILES: CC(C)Nc1nc(Nc2ccc(N3CCN(C)CC3)cc2)ncc1/N=C/c1cccs1
- IC50 [1]: > 100 µM
- IC50 [2]: 77.1 µM
- IC50 [3]: 91 µM
- IC50 [4]: > 100 µM

SMILES: C(=N\c1cnc(Nc2ccc(N3CCOCC3)cc2)nc1NC1CCCC1)/c1cccs1
- IC50 [1]: > 100 µM
- IC50 [2]: > 100 µM
- IC50 [3]: > 100 µM
- IC50 [4]: 20.8 µM

SMILES: CC(C)Nc1nc(Nc2ccc(N3CCOCC3)cc2)ncc1/N=C/c1ccccc1
- IC50 [1]: > 100 µM
- IC50 [2]: > 100 µM
- IC50 [3]: > 100 µM
- IC50 [4]: > 100 µM

SMILES: CCOC(=O)/C=N/c1cnc(Nc2ccc(N3CCOCC3)cc2)nc1NC1CCCC1
- Activity [5]: 10.6%
- Activity [6]: 11.7%
- Ratio IC50 [7]: 2.1
- Ratio IC50 [8]: 3
- Activity [9]: 37.77%
- Activity [10]: 30.52%
- Activity [11]: 24.2%
- Activity [12]: 3.09%
- Activity [13]: 36.46%
- Activity [14]: 27.6%
- IC50 [1]: 4.93 µM
- Ratio IC50 [15]: 2.9
- viability at 5 µM [16]: 63.5%
- Activity [17]: 29.98%
- viability at 2.5 µM [18]: 80.3%
- Activity [19]: 34.63%
- IC50 [2]: 14.2 µM
- Activity [20]: 41.55%
- Activity [21]: 28%
- Ratio IC50 [22]: 4.9
- IC50 [3]: 8.84 µM
- viability at 10 µM [23]: 44.5%
- Activity [24]: 33.02%
- Activity [25]: 0.62%
- Activity [26]: 0.195%
- Activity [27]: 28.47%
- Activity [28]: 24.4%
- Activity [29]: 8.86%
- IC50 [4]: 5.57 µM

SMILES: CN1CCN(c2ccc(Nc3ncc(/N=C/c4ccccc4)c(NC4CCCC4)n3)cc2)CC1
- IC50 [1]: 35.2 µM
- IC50 [2]: > 100 µM
- IC50 [3]: > 100 µM
- IC50 [4]: 28.6 µM

SMILES: CCOC(=O)/C=N/c1cnc(Nc2ccc(S(N)(=O)=O)cc2)nc1NC1CCCC1
- IC50 [1]: 9.64 µM
- IC50 [2]: 20.7 µM
- IC50 [3]: 42.2 µM
- IC50 [4]: 23.6 µM

SMILES: CCOC(=O)/C=N/c1cnc(Nc2ccc(S(N)(=O)=O)cc2)nc1NC1CC1
- IC50 [1]: > 100 µM
- IC50 [2]: > 100 µM
- IC50 [3]: > 100 µM
- IC50 [4]: > 100 µM

SMILES: CCOC(=O)/C=N/c1cnc(Nc2ccc(S(N)(=O)=O)cc2)nc1NC(C)C
- IC50 [1]: 49.1 µM
- IC50 [2]: 83.3 µM
- IC50 [3]: 58.8 µM
- IC50 [4]: > 100 µM

SMILES: CC(C)Nc1nc(Nc2ccc(S(N)(=O)=O)cc2)ncc1/N=C/c1ccc(C(F)(F)F)cc1
- IC50 [1]: > 100 µM
- IC50 [2]: > 100 µM
- IC50 [3]: > 100 µM
- IC50 [4]: > 100 µM

SMILES: CC(C)Nc1nc(Nc2ccc(N3CCOCC3)cc2)ncc1/N=C/c1ccc(C(F)(F)F)cc1
- IC50 [1]: > 100 µM
- IC50 [2]: > 100 µM
- IC50 [3]: > 100 µM
- IC50 [4]: > 100 µM

SMILES: NS(=O)(=O)c1ccc(Nc2ncc(/N=C/c3cccs3)c(NC3CCCC3)n2)cc1
- IC50 [1]: 13.3 µM
- IC50 [2]: 10.9 µM
- IC50 [3]: 23 µM
- IC50 [4]: 9.95 µM

SMILES: O=c1[nH]cc(F)c(=O)[nH]1 [FLUOROURACIL]
- IC50 [2]: 42.7 µM
- IC50 [3]: 18.1 µM
- IC50 [4]: 16.1 µM

Reference: ChEMBL document CHEMBL4811309, “Design, synthesis and antiproliferative activity of novel 2,4-diamino-5-methyleneaminopyrimidine derivatives as potential anticancer agents” (Bioorg Med Chem Lett, 2021)
